# Source: paper PMC10523748, “Cytotoxicity, acute and sub-chronic toxicities of the leaves of Bauhinia thonningii (Schumach.) Milne-Redh. (Caesalpiniaceae)” (BMC Complementary Medicine and Therapies, 2023)
# Columns and labels:
# [1] = system: HepG2 hepatocarcinoma cells; assay: RRA cytotoxicity, HepG2; conditions: Homo sapiens, HepG2, 72 h
# [2] = system: HCT116 p53^+/+ colon adenocarcinoma cells; assay: RRA cytotoxicity, HCT116 p53^+/+; conditions: Homo sapiens, HCT-116, 72 h
# HCT116 p53^−/− cells = assay: RRA cytotoxicity, HCT116 p53^−/−; conditions: Homo sapiens, HCT-116, 72 h
# CCRF-CEM leukemia cells = assay: Resazurin reduction assay (RRA) cytotoxicity, CCRF-CEM; conditions: 72 h
# CCRF-CEM cells = system: CCRF-CEM cells; set-up: method as in PMID 12064912; conditions: cited from earlier work
# MDA-MB-231-BCRP cells = assay: RRA cytotoxicity, MDA-MB-231-BCRP
# CEM/ADR5000 cells = system: CEM/ADR5000 cells; set-up: method as in PMID 12064912; conditions: cited from earlier work
# [3] = system: CEM/ADR5000 leukemia cells (P-gp-overexpressing); assay: RRA cytotoxicity, CEM/ADR5000
# normal AML12 hepatocytes = assay: RRA cytotoxicity, normal AML12 hepatocytes; conditions: Mus musculus, AML12, 72 h
# U87MG.ΔEGFR cells = assay: RRA cytotoxicity, U87MG.ΔEGFR; conditions: Homo sapiens, 72 h
# [4] = system: MDA-MB-231-pcDNA breast adenocarcinoma cells; assay: RRA cytotoxicity, MDA-MB-231-pcDNA; conditions: Homo sapiens, 72 h
# U87MG glioblastoma cells = assay: RRA cytotoxicity, U87MG; conditions: Homo sapiens, U-87 MG, 72 h
# [5] = system: 9 tested cancer cell lines; assay: RRA cytotoxicity, whole panel of cancer cell lines; conditions: 9 cancer cell lines, up to 50 µM
smiles,measurement,setting,value
"O=c1c(O)c(-c2ccc(O)c(O)c2)oc2cc(O)cc(O)c12 [Compound 4, quercetin]",IC50,[1],> 50 µM
same,IC50,[2],> 50 µM
same,IC50,HCT116 p53^−/− cells,> 50 µM
same,IC50,CCRF-CEM leukemia cells,27.3 ± 3.12 µM
same,IC50,CCRF-CEM leukemia cells; Homo sapiens,27 µM
same,IC50,CCRF-CEM cells,25 µM
same,IC50,"MDA-MB-231-BCRP cells; Homo sapiens, MDA-MB-231/BCRP, 72 h",> 50 µM
same,Degree of resistance,MDA-MB-231-BCRP cells; IC50 MDA-MB-231-BCRP versus MDA-MB-231-pcDNA,> 1.18
same,IC50,CEM/ADR5000 cells,101 µM
same,IC50,"[3]; Homo sapiens, ADR5000, 72 h",> 50 µM
same,Degree of resistance,[3]; IC50 CEM/ADR5000 versus CCRF-CEM,> 1.83
same,IC50,normal AML12 hepatocytes,> 50 µM
same,IC50,U87MG.ΔEGFR cells,> 50 µM
same,IC50,[4],42.3 ± 3.29 µM
same,IC50,U87MG glioblastoma cells,> 50 µM
same,Cytotoxic activity in the panel,[5],selectively active
